Source: patent publication US20170050957A1, “4-AMINO-6-(HETEROCYCLIC)PICOLINATES AND 6-AMINO-2-(HETEROCYCLIC)PYRIMIDINE-4-CARBOXYLATES AND THEIR USE AS HERBICIDES” (Dow AgroSciences LLC, priority 2013, published 2017)
Like-named read-outs stand apart in the source and are kept apart here.

Legend:
[1] = test system: Key Broadleaf Weed and Crop Species; assay: Post-emergent Test II herbicidal activity (Table 15); format: in vivo; details: post-emergence, 336 h, 14 d; for pest or weed control at 35 g/ha: 35 g ai/ha; for pest or weed control at 70 g/ha: 70 g ai/ha; for pest or weed control at 140 g/ha: 140 g ai/ha
How it was run: (§1)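 Visual injury rating (0 = none, 100 = complete kill) taken 14 d after treatment, relative to untreated plants. Compounds in acetone/DMSO with crop oil concentrate and Triton X-155 were track-sprayed at 187 L/ha onto seedlings at the first-second true leaf stage.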

[2] = test system: Key Grass and Sedge Weeds as well as Grass Crops; assay: Post-emergent Test II herbicidal activity (Table 16); format: in vivo; details: post-emergence, 336 h, 14 d; for pest or weed control at 35 g/ha: 35 g ai/ha; for pest or weed control at 70 g/ha: 70 g ai/ha; for pest or weed control at 140 g/ha: 140 g ai/ha
How it was run: as §1

[3] = Abutilon theophrasti, velvetleaf (Abutilon theophrasti), read-out: Visual Growth Reduction (%) 14 Days After Application, ABUTH
[4] = Amaranthus retroflexus, redroot pigweed (Amaranthus retroflexus), read-out: Visual Growth Reduction (%) 14 Days After Application, AMARE
[5] = Brassica napus, oilseed rape, canola (Brassica napus), read-out: Visual Growth Reduction (%) 14 Days After Application, BRSNN
[6] = Chenopodium album, lambsquarters (Chenopodium album), read-out: Visual Growth Reduction (%) 14 Days After Application, CHEAL
[7] = Euphorbia heterophylla, wild poinsettia (Euphorbia heterophylla), read-out: Visual Growth Reduction (%) 14 Days After Application, EPHHL
[8] = Helianthus annuus, sunflower (Helianthus annuus), read-out: Visual Growth Reduction (%) 14 Days After Application, HELAN
[9] = Cyperus esculentus, yellow nutsedge (Cyperus esculentus), read-out: Visual Growth Reduction (%) 14 Days After Application, CYPES
[10] = Echinochloa crus-galli, barnyardgrass (Echinochloa crus-galli), read-out: Visual Growth Reduction (%) 14 Days After Application, ECHCG
[11] = Oryza sativa, rice (Oryza sativa), read-out: Visual Growth Reduction (%) 14 Days After Application, ORYSA
[12] = Setaria faberi, giant foxtail (Setaria faberi), read-out: Visual Growth Reduction (%) 14 Days After Application, SETFA
[13] = Triticum aestivum, wheat, spring (Triticum aestivum), read-out: Visual Growth Reduction (%) 14 Days After Application, TRZAS
[14] = Zea mays, maize, corn (Zea mays), read-out: Visual Growth Reduction (%) 14 Days After Application, ZEAMX

Row | SMILES | pest or weed control at 35 g/ha [1, 3] | pest or weed control at 70 g/ha [1, 3] | pest or weed control at 140 g/ha [1, 3] | pest or weed control at 35 g/ha [1, 4] | pest or weed control at 70 g/ha [1, 4] | pest or weed control at 140 g/ha [1, 4] | pest or weed control at 35 g/ha [1, 5] | pest or weed control at 70 g/ha [1, 5] | pest or weed control at 140 g/ha [1, 5] | pest or weed control at 35 g/ha [1, 6] | pest or weed control at 70 g/ha [1, 6] | pest or weed control at 140 g/ha [1, 6] | pest or weed control at 35 g/ha [1, 7] | pest or weed control at 70 g/ha [1, 7] | pest or weed control at 140 g/ha [1, 7] | pest or weed control at 35 g/ha [1, 8] | pest or weed control at 70 g/ha [1, 8] | pest or weed control at 140 g/ha [1, 8] | pest or weed control at 35 g/ha [2, 9] | pest or weed control at 70 g/ha [2, 9] | further results
1 | COC(=O)c1nc(-c2ccc(Cl)c3occc23)c(F)c(N)c1Cl [Compound 2.16, Methyl 4-amino-3-chloro-6-(7-chlorobenzofuran-4-yl)-5-fluoropicolinate] | 85 to 94% | 95 to 100% | 95 to 100% | 95 to 100% | 95 to 100% | 95 to 100% | 45 to 59% | 60 to 74% | 60 to 74% | 95 to 100% | 95 to 100% | 95 to 100% | 0 to 29% | 0 to 29% | 0 to 29% | 95 to 100% | 95 to 100% | 95 to 100% | 0 to 29% | 0 to 29% | pest or weed control at 140 g/ha [2, 9]: 0 to 29%; pest or weed control at 35 g/ha [2, 10]: 0 to 29%; pest or weed control at 70 g/ha [2, 10]: 0 to 29%; pest or weed control at 140 g/ha [2, 10]: 0 to 29%; pest or weed control at 35 g/ha [2, 11]: 0 to 29%; pest or weed control at 70 g/ha [2, 11]: 0 to 29%; pest or weed control at 140 g/ha [2, 11]: 0 to 29%; pest or weed control at 35 g/ha [2, 12]: 0 to 29%; pest or weed control at 70 g/ha [2, 12]: 0 to 29%; pest or weed control at 140 g/ha [2, 12]: 0 to 29%; pest or weed control at 35 g/ha [2, 13]: 0 to 29%; pest or weed control at 70 g/ha [2, 13]: 0 to 29%; pest or weed control at 140 g/ha [2, 13]: 0 to 29%; pest or weed control at 35 g/ha [2, 14]: 45 to 59%; pest or weed control at 70 g/ha [2, 14]: 95 to 100%; pest or weed control at 140 g/ha [2, 14]: 95 to 100%; melting point: 184 to 186 °C
2 | COC(=O)c1nc(-c2ccc(Cl)c3occc23)cc(N)c1Cl [Compound 2.19] | 95 to 100% | 95 to 100% | 95 to 100% | 95 to 100% | 95 to 100% | 95 to 100% | 0 to 29% | 60 to 74% | 60 to 74% | 95 to 100% | 95 to 100% | 95 to 100% | 0 to 29% | 0 to 29% | 0 to 29% | 0 to 29% | 75 to 84% | 75 to 84% | 0 to 29% | 0 to 29% | pest or weed control at 140 g/ha [2, 9]: 0 to 29%; pest or weed control at 35 g/ha [2, 10]: 0 to 29%; pest or weed control at 70 g/ha [2, 10]: 0 to 29%; pest or weed control at 140 g/ha [2, 10]: 0 to 29%; pest or weed control at 35 g/ha [2, 11]: 0 to 29%; pest or weed control at 70 g/ha [2, 11]: 0 to 29%; pest or weed control at 140 g/ha [2, 11]: 0 to 29%; pest or weed control at 35 g/ha [2, 13]: 0 to 29%; pest or weed control at 70 g/ha [2, 13]: 0 to 29%; pest or weed control at 140 g/ha [2, 13]: 0 to 29%; pest or weed control at 35 g/ha [2, 14]: 0 to 29%; pest or weed control at 70 g/ha [2, 14]: 0 to 29%; pest or weed control at 140 g/ha [2, 14]: 0 to 29%; melting point: 158 to 159 °C
3 | COc1c(N)nc(-c2ccc(Cl)c3occc23)nc1C(=O)O [Compound 2.22] | 30 to 44% | 30 to 44% | 45 to 59% | 95 to 100% | 95 to 100% | 95 to 100% | 0 to 29% | 45 to 59% | 60 to 74% | 95 to 100% | 95 to 100% | 95 to 100% | 0 to 29% | 0 to 29% | 0 to 29% | 75 to 84% | 85 to 94% | 95 to 100% | 0 to 29% | 0 to 29% | pest or weed control at 140 g/ha [2, 9]: 0 to 29%; pest or weed control at 35 g/ha [2, 10]: 0 to 29%; pest or weed control at 70 g/ha [2, 10]: 0 to 29%; pest or weed control at 140 g/ha [2, 10]: 0 to 29%; pest or weed control at 35 g/ha [2, 11]: 0 to 29%; pest or weed control at 70 g/ha [2, 11]: 0 to 29%; pest or weed control at 140 g/ha [2, 11]: 0 to 29%; pest or weed control at 35 g/ha [2, 12]: 0 to 29%; pest or weed control at 70 g/ha [2, 12]: 0 to 29%; pest or weed control at 140 g/ha [2, 12]: 0 to 29%; pest or weed control at 35 g/ha [2, 13]: 0 to 29%; pest or weed control at 70 g/ha [2, 13]: 0 to 29%; pest or weed control at 140 g/ha [2, 13]: 0 to 29%; pest or weed control at 35 g/ha [2, 14]: 0 to 29%; pest or weed control at 70 g/ha [2, 14]: 0 to 29%; pest or weed control at 140 g/ha [2, 14]: 0 to 29%; melting point: 204 to 206 °C
